Test results reported in patent US8471005B2 (Cephalon, Inc., priority 2008, dated 2013).
pIC50: −log10 of the molar value. Like-named read-outs stand apart in the source and are kept apart here.

Columns and labels:
[1] = biological target: T1, JAK2 (Homo sapiens, UniProt O60674); test: Recombinant Human JAK2 Kinase Assay (TRF); type: biochemical; conditions: read-out: JAK2 Potency
T1 construct: host or cells: baculovirus expression system
Procedure, shortened: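 Baculovirus-expressed JAK2 (15 ng/ml) phosphorylated a biotinylated 15-mer peptide captured on Neutravidin-coated plates, in 20 mM HEPES pH 7.2 with 0.2 μM ATP, 1 mM MnCl2, 0.1% BSA and 2.5% DMSO. Reaction ran 20 min at room temperature; phosphopeptide was detected by time-resolved fluorescence with Eu-N1-labelled PY100 antibody.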

[2] = biological target: T2, ALK (Homo sapiens, UniProt Q9UM73); test: ALK Kinase Assay (ELISA/TRF, PLC-γ substrate); type: biochemical; conditions: read-out: ALK Potency
T2 construct: host or cells: baculovirus expression system
T2 sequence (Q9UM73 19-1620): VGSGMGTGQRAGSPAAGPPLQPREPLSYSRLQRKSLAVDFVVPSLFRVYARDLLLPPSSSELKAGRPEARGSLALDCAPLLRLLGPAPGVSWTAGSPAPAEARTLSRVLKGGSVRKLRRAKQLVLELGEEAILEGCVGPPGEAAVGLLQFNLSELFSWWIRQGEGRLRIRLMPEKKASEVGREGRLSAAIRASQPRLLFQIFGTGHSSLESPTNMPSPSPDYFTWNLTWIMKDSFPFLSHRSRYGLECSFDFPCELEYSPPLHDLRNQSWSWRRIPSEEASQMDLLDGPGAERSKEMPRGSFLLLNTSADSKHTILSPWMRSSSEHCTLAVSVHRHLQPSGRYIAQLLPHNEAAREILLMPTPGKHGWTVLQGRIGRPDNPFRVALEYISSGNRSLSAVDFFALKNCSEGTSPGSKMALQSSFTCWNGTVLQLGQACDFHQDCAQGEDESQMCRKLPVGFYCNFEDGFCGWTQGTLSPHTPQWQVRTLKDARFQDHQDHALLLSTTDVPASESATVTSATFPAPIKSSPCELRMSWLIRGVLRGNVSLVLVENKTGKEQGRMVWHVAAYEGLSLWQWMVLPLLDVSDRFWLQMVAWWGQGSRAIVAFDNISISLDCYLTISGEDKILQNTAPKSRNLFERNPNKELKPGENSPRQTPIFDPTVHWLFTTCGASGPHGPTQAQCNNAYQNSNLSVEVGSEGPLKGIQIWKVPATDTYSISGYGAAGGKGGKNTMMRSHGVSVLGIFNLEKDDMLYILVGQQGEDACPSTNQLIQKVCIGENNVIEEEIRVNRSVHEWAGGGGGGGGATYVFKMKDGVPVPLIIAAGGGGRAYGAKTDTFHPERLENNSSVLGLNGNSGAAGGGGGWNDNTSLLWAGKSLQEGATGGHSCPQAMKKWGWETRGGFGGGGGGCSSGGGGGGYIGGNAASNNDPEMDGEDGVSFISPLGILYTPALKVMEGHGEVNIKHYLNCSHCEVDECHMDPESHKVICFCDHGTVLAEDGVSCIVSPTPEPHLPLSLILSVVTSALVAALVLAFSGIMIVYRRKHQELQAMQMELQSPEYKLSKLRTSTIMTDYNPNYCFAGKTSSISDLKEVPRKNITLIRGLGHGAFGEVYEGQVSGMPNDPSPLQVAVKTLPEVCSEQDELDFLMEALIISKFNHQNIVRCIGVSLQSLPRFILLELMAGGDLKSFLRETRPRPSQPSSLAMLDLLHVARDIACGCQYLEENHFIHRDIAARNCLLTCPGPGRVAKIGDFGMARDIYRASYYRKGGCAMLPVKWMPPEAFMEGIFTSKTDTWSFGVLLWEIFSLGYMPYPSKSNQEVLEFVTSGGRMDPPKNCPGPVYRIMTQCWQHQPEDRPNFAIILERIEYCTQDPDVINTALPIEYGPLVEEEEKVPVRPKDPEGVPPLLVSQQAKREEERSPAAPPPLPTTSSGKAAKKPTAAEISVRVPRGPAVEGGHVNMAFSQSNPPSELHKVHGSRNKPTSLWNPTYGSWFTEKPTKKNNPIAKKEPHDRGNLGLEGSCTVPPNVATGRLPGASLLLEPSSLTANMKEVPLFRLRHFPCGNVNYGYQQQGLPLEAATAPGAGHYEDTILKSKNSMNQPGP
Procedure, shortened: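 PLC-γ coat 10 μg/mL in TBS; ALK 30 ng/ml added to start; 37° C, 15 min; Eu-N1 PT66 antibody detection (TRF). IC50: % inhibition vs log10 [cpd], variable-slope sigmoidal fit.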

[3] = JAK2 kinase inhibition, 0.2 μM ATP
[4] = ALK kinase inhibition, 1 μM ATP

T1 sequence (O60674 whole entry): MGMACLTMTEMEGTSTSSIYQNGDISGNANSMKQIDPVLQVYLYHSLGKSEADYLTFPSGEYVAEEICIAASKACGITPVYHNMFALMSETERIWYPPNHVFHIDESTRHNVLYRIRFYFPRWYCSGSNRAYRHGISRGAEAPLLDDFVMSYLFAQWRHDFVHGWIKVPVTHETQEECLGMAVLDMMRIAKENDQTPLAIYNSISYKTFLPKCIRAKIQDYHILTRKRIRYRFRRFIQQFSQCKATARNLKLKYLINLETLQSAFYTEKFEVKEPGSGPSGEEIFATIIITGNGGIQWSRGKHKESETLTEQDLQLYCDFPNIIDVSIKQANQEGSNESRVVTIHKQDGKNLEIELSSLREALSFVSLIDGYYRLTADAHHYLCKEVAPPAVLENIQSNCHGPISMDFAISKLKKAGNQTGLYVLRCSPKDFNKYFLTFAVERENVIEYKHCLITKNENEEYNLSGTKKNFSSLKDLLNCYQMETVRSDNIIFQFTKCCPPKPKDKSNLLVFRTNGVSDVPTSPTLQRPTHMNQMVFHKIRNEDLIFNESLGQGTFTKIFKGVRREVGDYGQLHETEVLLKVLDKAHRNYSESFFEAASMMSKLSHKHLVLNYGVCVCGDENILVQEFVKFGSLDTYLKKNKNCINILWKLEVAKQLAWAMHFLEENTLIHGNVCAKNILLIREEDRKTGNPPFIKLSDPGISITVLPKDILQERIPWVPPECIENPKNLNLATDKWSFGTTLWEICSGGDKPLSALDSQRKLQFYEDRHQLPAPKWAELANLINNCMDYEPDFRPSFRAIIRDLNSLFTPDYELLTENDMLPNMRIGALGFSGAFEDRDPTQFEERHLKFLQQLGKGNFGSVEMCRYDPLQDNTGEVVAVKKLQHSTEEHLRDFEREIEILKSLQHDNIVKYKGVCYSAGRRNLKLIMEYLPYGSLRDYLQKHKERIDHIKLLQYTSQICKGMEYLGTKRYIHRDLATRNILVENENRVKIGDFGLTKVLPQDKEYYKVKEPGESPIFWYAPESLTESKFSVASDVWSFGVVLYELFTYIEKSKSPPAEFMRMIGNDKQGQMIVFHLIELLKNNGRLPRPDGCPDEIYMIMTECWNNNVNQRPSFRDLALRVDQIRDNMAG

| Compound | pIC50 [1, 3] | pIC50 [2, 4] | pIC50 ([1]; JAK2 Kinase Inhibition) | pIC50 ([2]; ALK Kinase Inhibition) |
| --- | --- | --- | --- | --- |
| COc1ccccc1-c1ccc2cnc(Nc3ccc(C4CN(CC(N)=O)C4)cc3)nn12 [Example 583, 2-(3-{4-[7-(2-Methoxy-phenyl)-pyrrolo[2,1-f][1,2,4]triazin-2-ylamino]-phenyl}-azetidin-1-yl)-acetamide] | > 7.00 | 6.00 to 7.00 |  |  |
| CS(=O)(=O)Nc1cccc(-c2ccc3cnc(Nc4ccc(F)c(N5CCOCC5)c4)nn23)c1 [Example 390, N-{3-[2-(4-Fluoro-3-morpholin-4-yl-phenylamino)-pyrrolo[2,1-f][1,2,4]triazin-7-yl]-phenyl}-methanesulfonamide] |  |  | > 7.00 | 6.00 to 7.00 |
| COc1cccc(Nc2ncc3cc4ccccc4n3n2)c1 [Example 272, (3-Methoxy-phenyl)-[1,2,4]triazino[1,6-a]indol-2-yl-amine] |  |  | > 7.00 | < 5.00 |
| COc1ccc(-c2cc(Cl)c3cnc(Nc4ccc(C5CCN(CC(N)=O)CC5)cc4)nn23)cn1 [Example 1555, 2-(4-{4-[5-Chloro-7-(6-methoxy-pyridin-3-yl)-pyrrolo[2,1-f][1,2,4]triazin-2-ylamino]-phenyl}-piperidin-1-yl)-acetamide] |  |  | > 7.00 | 6.00 to 7.00 |
| CN(c1ccccc1-c1ccc2cnc(Nc3nccs3)nn12)S(C)(=O)=O [Example 1362, N-Methyl-N-{2-[2-(thiazol-2-ylamino)-pyrrolo[2,1-f][1,2,4]triazin-7-yl]-phenyl}-methanesulfonamide] | 6.00 to 7.00 | 5.00 to 6.00 |  |  |
| COc1cc(N2CCC(N3CCCN(C)CC3)CC2)ccc1Nc1ncc2ccc(-c3ccccc3N(C)S(C)(=O)=O)n2n1 [Example 784, N-[2-(2-{2-Methoxy-4-[4-(4-methyl-[1,4]diazepan-1-yl)-piperidin-1-yl]-phenylamino}-pyrrolo[2,1-f][1,2,4]triazin-7-yl)-phenyl]-N-methyl-methanesulfonamide] | 6.00 to 7.00 | > 7.00 |  |  |
| Cc1cc(Nc2ncc3ccc(-c4cccc(Cl)c4)n3n2)ccc1N1CCOCC1 [Example 66, [7-(3-Chloro-phenyl)-pyrrolo[2,1-f][1,2,4]triazin-2-yl]-(3-methyl-4-morpholin-4-yl-phenyl)-amine] |  |  | > 7.00 | 5.00 to 6.00 |
| COc1cc([C@H]2CC[C@@H](N3CCOCC3)CC2)ccc1Nc1ncc2ccc(-c3ccccc3N(C)S(C)(=O)=O)n2n1 [Example 1249, N-{2-[2-({2-methoxy-4-[cis-4-(morpholin-4-yl)cyclohexyl]phenyl}amino)pyrrolo[2,1-f][1,2,4]triazin-7-yl]phenyl}-N-methylmethanesulfonamide] | 5.00 to 6.00 | > 7.00 |  |  |
| COc1ccc(CNc2ncc3ccc(-c4ccccc4OC)n3n2)cc1OC [Example 442, (3,4-Dimethoxy-benzyl)-[7-(2-methoxy-phenyl)-pyrrolo[2,1-f][1,2,4]triazin-2-yl]-amine] |  |  | 5.00 to 6.00 | < 5.00 |
| CN1CCN(c2ccc(Nc3ncc4ccc(-c5cccc(CO)c5)n4n3)cc2)CC1 [Example 1498, (3-{2-[4-(4-Methyl-piperazin-1-yl)-phenylamino]-pyrrolo[2,1-f][1,2,4]triazin-7-yl}-phenyl)-methanol] |  |  | > 7.00 | > 7.00 |
| COc1ccccc1-c1ccc2cnc(Nc3ccc(C4CCNCC4)nc3)nn12 [Example 1026, (1′,2′,3′,4′,5′,6′-Hexahydro-[2,4]bipyridinyl-5-yl)-[7-(2-methoxy-phenyl)-pyrrolo[2,1-f][1,2,4]triazin-2-yl]-amine] | > 7.00 | > 7.00 |  |  |
| N-[2-(2-{4-[4-(2-Hydroxy-ethyl)-piperazin-1-yl]-phenylamino}-pyrrolo[2,1-f][1,2,4]triazin-7-yl)-phenyl]-N-methyl-methanesulfonamide [Example 1171] | > 7.00 | > 7.00 |  |  |
| COc1cc(C2CCN(CC(=O)O)CC2)ccc1Nc1ncc2ccc(-c3ccccc3OC)n2n1 [Example 1278, (4-{3-Methoxy-4-[7-(2-methoxy-phenyl)-pyrrolo[2,1-f][1,2,4]triazin-2-ylamino]-phenyl}-piperidin-1-yl)-acetic acid] | 6.00 to 7.00 | > 7.00 |  |  |
| COc1ccccc1-c1ccc2cnc(Nc3ccc(C4CCN(C(=O)OC(C)(C)C)C4)cc3)nn12 (stereo not shown) [Example 1008, 3-{4-[7-(2-Methoxy-phenyl)-pyrrolo[2,1-f][1,2,4]triazin-2-ylamino]-phenyl}-pyrrolidine-1-carboxylic acid tert-butyl ester] | > 7.00 | 6.00 to 7.00 |  |  |
| COc1ccc(-c2ccc3cnc(Nc4ccc(CN5CCCC5)cc4)nn23)cn1 [Example 1405, [7-(6-Methoxy-pyridin-3-yl)-pyrrolo[2,1-f][1,2,4]triazin-2-yl]-(4-pyrrolidin-1-ylmethyl-phenyl)-amine] |  |  | > 7.00 | 5.00 to 6.00 |
| CN1CCN(C(=O)c2cccc(Nc3ncc4ccc(-c5cccc(Cl)c5)n4n3)c2)CC1 [Example 340, {3-[7-(3-Chloro-phenyl)-pyrrolo[2,1-f][1,2,4]triazin-2-ylamino]-phenyl}-(4-methyl-piperazin-1-yl)-methanone] |  |  | > 7.00 | 6.00 to 7.00 |

Continued, values first:

| pIC50 [1, 3] | pIC50 [2, 4] | pIC50 ([1]; JAK2 Kinase Inhibition) | pIC50 ([2]; ALK Kinase Inhibition) | Compound |
| --- | --- | --- | --- | --- |
| > 7.00 | > 7.00 |  |  | COc1ccccc1-c1ccc2cnc(Nc3ccc(C4CCN(C)CC4)c(OC)c3)nn12 [Example 908, [3-Methoxy-4-(1-methyl-piperidin-4-yl)-phenyl]-[7-(2-methoxy-phenyl)-pyrrolo[2,1-f][1,2,4]triazin-2-yl]-amine] |
|  |  | > 7.00 | < 5.00 | CS(=O)(=O)c1ccc(-c2ccc3cnc(Nc4ccc(N5CCCCC5)cc4)nn23)cc1 [Example 61, [7-(4-Methanesulfonyl-phenyl)-pyrrolo[2,1-f][1,2,4]triazin-2-yl]-(4-piperidin-1-yl-phenyl)-amine] |
| 6.00 to 7.00 | 5.00 to 6.00 |  |  | CN(c1ccccc1-c1ccc2cnc(OC3CCN(c4ccc(N)cc4)CC3)nn12)S(C)(=O)=O [Example 634, N-(2-{2-[1-(4-Amino-phenyl)-piperidin-4-yloxy]-pyrrolo[2,1-f][1,2,4]triazin-7-yl}-phenyl)-N-methyl-methanesulfonamide] |
|  |  | > 7.00 | 6.00 to 7.00 | C[C@H](O)CN1CCN(c2ccc(Nc3ncc4ccc(-c5ccccc5NS(C)(=O)=O)n4n3)cc2)CC1 [Example 430, N-[2-(2-{4-[4-((S)-2-Hydroxy-propyl)-piperazin-1-yl]-phenylamino}-pyrrolo[2,1-f][1,2,4]triazin-7-yl)-phenyl]-methanesulfonamide] |
| > 7.00 | > 7.00 |  |  | COc1cc2c(cc1Nc1ncc3ccc(-c4ccccc4OC)n3n1)CN(C(=O)CN)C2 [Example 878, 2-Amino-1-{5-methoxy-6-[7-(2-methoxy-phenyl)-pyrrolo[2,1-f][1,2,4]triazin-2-ylamino]-1,3-dihydro-isoindol-2-yl}-ethanone] |
| > 7.00 | 5.00 to 6.00 |  |  | CCS(=O)(=O)c1cccc(-c2ccc3cnc(Nc4ccc5ncn(C)c5c4)nn23)c1 [Example 1312, [7-(3-Ethanesulfonyl-phenyl)-pyrrolo[2,1-f][1,2,4]triazin-2-yl]-(3-methyl-3H-benzimidazol-5-yl)-amine] |
| > 7.00 | > 7.00 |  |  | CN(c1ccccc1-c1ccc2cnc(Nc3ccc4c(c3)C(C)(C)C(=O)N4)nn12)S(C)(=O)=O [Example 632, N-{2-[2-(3,3-Dimethyl-2-oxo-2,3-dihydro-1H-indol-5-ylamino)-pyrrolo[2,1-f][1,2,4]triazin-7-yl]phenyl}N-methyl-methanesulfonamide] |
| 6.00 to 7.00 | > 7.00 |  |  | COc1cc(C2CCN(C(=O)CN(C)C)CC2)ccc1Nc1ncc2ccc(-c3ccccc3OC)n2n1 [Example 815, 2-Dimethylamino-1-(4-{3-methoxy-4-[7-(2-methoxy-phenyl)-pyrrolo[2,1-f][1,2,4]triazin-2-ylamino]-phenyl}-piperidin-1-yl)-ethanone] |
|  |  | 6.00 to 7.00 | 6.00 to 7.00 | CC(C)(C)NS(=O)(=O)c1ccccc1-c1ccc2cnc(Nc3ccc(N4CCOCC4)cc3)nn12 [Example 412] |
| > 7.00 | 5.00 to 6.00 |  |  | CC(=O)N1CCc2ccc(Nc3ncc4ccc(-c5cccc(S(=O)(=O)N6CC[C@H](O)C6)c5)n4n3)cc21 [Example 885, 1-(6-{7-[3-((S)-3-Hydroxy-pyrrolidine-1-sulfonyl)-phenyl]-pyrrolo[2,1-f][1,2,4]triazin-2-ylamino}-2,3-dihydro-indol-1-yl)-ethanone] |
|  |  | > 7.00 | 6.00 to 7.00 | COc1ccc(Nc2ncc3ccc(-c4ccccc4N(C)S(C)(=O)=O)n3n2)cc1N1CCCC1=O [Example 1370, N-(2-{2-[4-Methoxy-3-(2-oxo-pyrrolidin-1-yl)-phenylamino]-pyrrolo[2,1-f][1,2,4]triazin-7-yl}-phenyl)-N-methyl-methanesulfonamide] |
|  |  | > 7.00 | 6.00 to 7.00 | C=Cc1cc(-c2ccccc2OC)n2nc(Nc3ccc(N4CCN(C)CC4)cc3)ncc12 [Example 103, [7-(2-Methoxy-phenyl)-5-vinyl-pyrrolo[2,1-f][1,2,4]triazin-2-yl]-[4-(4-methyl-piperazin-1-yl)-phenyl]-amine] |
| > 7.00 | 6.00 to 7.00 |  |  | COc1ccccc1-c1ccc2cnc(Nc3ccc(C4=CCN(CC(N)=O)CC4)c(C(F)(F)F)c3)nn12 [Example 952, 2-(4-{4-[7-(2-Methoxy-phenyl)-pyrrolo[2,1-f][1,2,4]triazin-2-ylamino]-2-trifluoromethyl-phenyl}-3,6-dihydro-2H-pyridin-1-yl)-acetamide] |
